From patent US4264598A (priority 1980, dated 1981)

Legend:
Uronyces phaseoli tipica = experiment: Leaf rust, % disease control; format: in vivo, Uronyces phaseoli tipica (host: pinto beans); conditions: 250 ppm spray; inoculated thereafter; rated after about 14 days; relative to untreated check plants
Experimental: The leaf-rust was made using pinto beans. The pathogen was Uronyces phaseoli tipica. The pinto-bean plants were sprayed with a 250-ppm solution of the test compound in an acetone-water mixture containing a nonionic emulsifier. The treated plants were inoculated thereafter with the pathogen and then incubated in an environmental chamber for approximately 20 hours at 100% relative humidity and a temperature of 68°-70° F. The plants were then removed from the chamber, allowed to dry, and then maintained in a greenhouse at a 60-80% relative humidity. The rate of infection on the leaves was made after about 14 days. The percent disease control provided by a given test compound was based on the disease reduction relative to untreated check plants.

Phytophthora infestans = format: in vivo, Phytophthora infestans (host: tomato, cultivar Bonny Best); conditions: 250 ppm spray; inoculated one day later; approximately 7 days in greenhouse; relative to untreated check plants
Erysiphe polygoni = experiment: Powdery mildew, % disease control; format: in vivo, Erysiphe polygoni (host: bean seedlings, var. Bountiful); conditions: 250 ppm spray; inoculated one day later; rated after about 10 days; relative to untreated check plants
Experimental: The powdery mildew test was made using bean seedlings (var. Bountiful) with well-developed primary leaves. The pathogen was Erysiphe polygoni. The bean seedlings were sprayed with a 250-ppm solution of the test compound in an acetone-water mixture containing a nonionic emulsifier. The treated plants were inoculated one day after spray application of the test compound with the pathogen. The plants were then maintained in a greenhouse at a 60-80% relative humidity and at a temperature of 68°-70° F. The rate of infection on the leaves was made after about 10 days. The percent disease control provided by a given test compound was based on the disease reduction relative to untreated check plants.

[1] = system: Alternaria solani conidia; experiment: Tomato early blight, % disease control; format: in vivo, Alternaria solani (host: tomato, variety Bonny Best); conditions: 250 ppm spray; inoculated one day later; about 12 days; relative to untreated check plants
Experimental: Compounds of the invention were tested for the control of the Tomato Early Blight organism, Alternaria solani conidia. Tomato (variety Bonny Best) seedlings of 6 to 7 weeks old were used. The tomato plants were sprayed with a 250-ppm solution of the test compound in an acetone-and-water solution containing a small amount of a nonionic emulsifier. The sprayed plants were inoculated one day later with the organism, dried and maintained at 60-80% relative humidity for about 12 days. Percent disease control was based on the percent disease development on untreated check plants.

Septoria apii = format: in vivo, Septoria apii (host: celery, Utah); conditions: 250 ppm (Table I default); approximately 48 hours incubation then approximately 14 days; relative to untreated check plants

C#CC(C)(C)N1CN(C(C)(C)C#C)CN(C(C)(C)C#C)C1 [Compound 2, 1,3,5-(1',1'-dimethyl-propargyl)-hexahydro-1,3,5-triazine]
Fungicidal efficacy, % control, LR (Uronyces phaseoli tipica): 0%
Fungicidal efficacy, % control, TLB (Phytophthora infestans): 0%
Fungicidal efficacy, % control, PM (Erysiphe polygoni): 0%
Fungicidal efficacy, % control, TEB [1]: 0%
Fungicidal efficacy, % control, CLB (Septoria apii): 27%

C#CC1(N2CN(C3(C#C)CCCCC3)CN(C3(C#C)CCCCC3)C2)CCCCC1 [Compound 1, 1,3,5-TRI(1'-ETHYNYLCYCLOHEXYL)-HEXAHYDRO-1,3,5-TRIAZINE]
Fungicidal efficacy, % control, LR (Uronyces phaseoli tipica): 0%
Fungicidal efficacy, % control, TLB (Phytophthora infestans): 100%
Fungicidal efficacy, % control, PM (Erysiphe polygoni): 37%
Fungicidal efficacy, % control, TEB [1]: 100%
Fungicidal efficacy, % control, CLB (Septoria apii): 74%
